From ChEMBL document CHEMBL1156448, “Identification of an efficacy switch region in the ghrelin receptor responsible for interchange between agonism and inverse agonism” (J Biol Chem, 2007)

How the values were obtained:
[1] = biological target: T1, Growth hormone secretagogue receptor type 1 (Homo sapiens, UniProt Q92847); assay: Displacement of [35S]MK677 from human ghrelin receptor expressed in african green monkey COS7 cells; format: cell-based, COS-7
[2] = biological target: T1, Growth hormone secretagogue receptor type 1; assay: Inverse agonist activity at human ghrelin receptor expressed in african green monkey COS7 cells assessed as constitutively stimulated inositol phosphate accumulation; format: functional, cell-based, COS-7

T1 sequence (Q92847 whole entry): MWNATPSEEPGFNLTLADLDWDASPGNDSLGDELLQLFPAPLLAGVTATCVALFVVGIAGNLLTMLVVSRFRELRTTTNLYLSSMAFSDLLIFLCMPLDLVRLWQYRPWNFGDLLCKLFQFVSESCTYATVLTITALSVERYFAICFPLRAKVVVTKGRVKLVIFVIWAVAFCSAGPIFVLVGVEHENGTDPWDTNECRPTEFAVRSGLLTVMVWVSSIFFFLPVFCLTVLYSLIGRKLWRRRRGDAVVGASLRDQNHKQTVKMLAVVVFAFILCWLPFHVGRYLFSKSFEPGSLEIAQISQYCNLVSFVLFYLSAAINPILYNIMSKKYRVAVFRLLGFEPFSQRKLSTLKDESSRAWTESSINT

Structure (SMILES)	IC50 [1]	IC50 [2]
CC(C)C[C@H](NC(=O)[C@H](CC(C)C)NC(=O)[C@@H](Cc1c[nH]c2ccccc12)NC(=O)[C@H](Cc1ccccc1)NC(=O)[C@@H](Cc1c[nH]c2ccccc12)NC(=O)[C@@H](N)CCCN=C(N)N)C(N)=O	12 nM	21 nM
CC(C)C[C@H](NC(=O)[C@H](CC(C)C)NC(=O)[C@@H](Cc1c[nH]c2ccccc12)NC(=O)[C@H](Cc1ccccc1)NC(=O)[C@@H](Cc1c[nH]c2ccccc12)NC(=O)[C@@H](N)Cc1cnc[nH]1)C(N)=O	58 nM	68 nM
